# In patent US9687529B2, “Method of controlling coagulation” (Duke University, priority 2011, dated 2017):
# Legend:
# human blood = assay: Ex vivo extracorporeal oxygenator minicircuit with ACT+ monitoring; details: human blood in ex vivo minicircuit; average donor baseline 115 seconds; FIG. 25 doses: UFH 5 U/mL, 9.3T 1 μM, 11F7T 2 μM, R9D-14T 5 μM, 11F7T 0.5 μM+R9D-14T 5 μM
# Description: The extracorporeal minicircuit consisted of a sample line, custom-designed 8 mL Plexiglas® venous reservoir, a mechanical roller pump (MasterFlex®; Cole-Parmer Instrument Co., Vernon Hills, Ill.), and a custom-designed small-volume oxygenator that are all connected by MasterFlex precision silicone tubing (Cole-Parmer Instrument Co.) (de Lange et al, Br J Anaesth 99:177-83 (2007), de Lange et al, J Cardiothorac Surg 3:51 (2008). The 4 mL priming volume oxygenator is comprised of two Plexiglas® shells (12.8 cm×12.8 cm×2.7 cm) that cover a disposable three layer artificial diffusion membrane comprised of hollow polypropylene fibers glued together in a crosswise fashion. The surface area available for gas exchange is 558 cm^2. To prevent heat loss, one of the shells has an integrated heat exchanger, and the temperature was maintained at approximately 33° C. with a circulating water bath system (Gaymar Industries, Orchard Park, N.Y.). A MEAS reusable temperature probe (Model 451, Measurement Specialties Inc., Dayton, Ohio) was inserted into the reservoir to continuously measure the temperature, and an in-line flow probe (2N806 flow probe and T208 volume flowmeter; Transonics Systems, Inc., Ithaca, N.Y.) was used to continuously measure the blood flow. The circuit blood O2 level was maintained at 95% and the CO2 was maintained at 5%.
# The minicircuit was primed with phosphate buffered saline (PBS) at a flow rate of 50 mL/min for approximately 30 min. Blood was drawn from healthy, consented volunteers and anticoagulated with 3.2% sodium citrate. Approximately 25 mL of citrated blood was incubated with 500 μL of anticoagulant (i.e., UFH or aptamer) at 37° C. for 5 min. The PBS was drained from the minicircuit, and the blood was added and circulated at a rate of 50 mL/min with 95% O2/5% CO2 at approximately 33° C. […] The venous blood gases were analyzed with a GEM Premier 3000 blood gas/electrolyte analyzer (model 5700; Instrumentation Laboratories, Inc, Lexington, Mass.) to determine the hematocrit, CaCl2, O2, and CO2 levels. […]
# [1] = test system: clot formation in normal human platelet poor plasma; assay: Prothrombin time (PT) plasma clotting assay; format: biochemical; details: for increase of PT clotting time: 4 μM aptamer
# Description: The activated partial thromboplastin time (aPTT) and prothrombin time (PT) assays were performed on a model ST4 mechanical coagulometer (Diagnostica Stago, Parsippany, N.J.) as previously described (Bompiani et al, J Thromb Haemost 10:870-80 (2012)). For the aPTT, 50 μL of normal human platelet poor plasma (PPP) was incubated with 50 μL TriniClot aPTT S (Trinity BioTech, Bray, Co Wicklow, Ireland) at 37° C. for 5 min. Aptamer(s) (5 μL) was added, and the mixture was incubated at 37° C. for another 5 min, and CaCl2 (50 μL) was added to initiate the assay. For the PT, 50 μL of normal human PPP was incubated with 5 μL of aptamer(s) at 37° C. for 5 min. TriniClot PT Excel reagent (Trinity BioTech, Bray, Co Wicklow, Ireland) (100 μL) was added to initiate the reaction. Assays with a combination of two aptamers contain an equimolar concentration of each individual aptamer, and the data shown are the total RNA concentration.
# To compare the anticoagulant effect of these four aptamers, dose-response titrations were performed in several clinical plasma-based clotting assays. The activated partial thromboplastin time (aPTT) and prothrombin time (PT) are plasma clotting assays that are clinically used to probe for abnormalities in the intrinsic and extrinsic coagulation pathways, respectively (Van Cott et al, editors. Jacobs & DeMott laboratory test handbook. 5th ed. Hudson Ohio: Lexi-Comp. p. 327-58 (2001)). These relatively simple assays measure the time until clot formation in platelet poor plasma (PPP) in response to either robust tissue factor (TF), or contact stimulation via negatively charged surfaces (i.e., silica, kaolin, celite). […] At high concentrations, the prothrombin aptamer (R9D-14T) was the most robust anticoagulant and inhibited greater than 96% of prothrombin activity in the aPTT and PT. At 4 μM, R9D-14T increased the aPTT clotting time approximately 18-fold and the PT clotting time greater than 80-fold (exceeded the assay limit of 999 sec). […] At the same dose, the FIXa aptamer (9.3T) inhibited greater than 99% of FIX activity and increased the aPTT clotting time approximately 5.5-fold, while the FVIIa aptamer (7S-1) increased the PT clotting time 3-fold and inhibited greater than 99% of FVII activity (FIGS. 20A and 20B).
Substance,ACT+ maximal clotting time (human blood),increase of PT clotting time [1],"PT clotting time ([1]; 4 μM, assay limit 999 sec) [s]","prothrombin activity inhibited ([1]; PT, high concentrations)"
"9.3T: FIXa aptamer, 2'-fluoropyrimidine modified RNA, SEQ ID NO: 1 (AUGGGGACUAUACCGCGUAAUGCUGCCUCCCCAU; 2'-fluoro at CU, RNA at AG, backbone not given here) [Aptamer 9.3T]",had no effect,,,
"11F7T: FXa aptamer, 2'-fluoropyrimidine modified RNA, SEQ ID NO: 2 (GAGAGCCCCAGCGAGAUAAUACUUGGCCCCGCUCUU; 2'-fluoro at CU, RNA at AG, backbone not given here) [Aptamer 11F7T]",213 s,approximately 8 fold,,
"R9D-14T: prothrombin/thrombin aptamer, 58-base truncation of RNA9D-14, SEQ ID NO: 3 (GGCGGTCGATCACACAGTTCAAACGTAATAAGCCAATGTACGAGGCAGACGACTCGCC; 2'-fluoro at CT, RNA at AG, backbone and T or U not given here) [Aptamer R9D-14T]",365 s,greater than 80 fold,> 999,greater than 96%
